Test [1] has as its target T1, HMG/CHA aldolase (Pseudomonas putida, UniProt A5W059).
T1 construct: gene Pput_1361; recombinant from pT7-7, expressed in E. coli; chelex-treated apo-enzyme reconstituted with MgCl2
As to the kind of experiment: aldol cleavage, LDH-coupled NADH oxidation at […] nm. To be noted: substrate inhibition constant, 1 mM MgCl2, 0.1 M HEPES pH 8.0, 25 °C, racemic substrate. Format: biochemical.

The target of test [2] is T1, HMG/CHA aldolase. The experiment in a line: decarboxylation, LDH-coupled NADH oxidation at […] nm. Format: biochemical. To be noted: substrate inhibition constant, 1 mM MgCl2, 0.1 M HEPES pH 8.0, 25 °C.

Results on two compounds are retold here after PMC5065237, “Investigation into the Mode of Phosphate Activation in the 4-Hydroxy-4-Methyl-2-Oxoglutarate/4-Carboxy-4-Hydroxy-2-Oxoadipate Aldolase from Pseudomonas putida F1” (PLoS ONE, 2016).

T1 sequence (A5W059 whole entry): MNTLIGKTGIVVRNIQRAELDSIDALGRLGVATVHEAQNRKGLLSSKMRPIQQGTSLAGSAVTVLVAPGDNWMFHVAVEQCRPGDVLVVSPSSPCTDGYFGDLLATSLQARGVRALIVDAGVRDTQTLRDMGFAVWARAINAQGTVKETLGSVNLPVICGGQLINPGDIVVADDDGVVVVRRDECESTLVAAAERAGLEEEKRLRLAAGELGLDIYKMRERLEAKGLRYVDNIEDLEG

Take `CC(O)(CC(=O)C(=O)O)C(=O)O` (racemic) [HMG]: the “Without Pi / Ksi” value in test [1] came out at 1.80 ± 0.091 mM. In the case of `O=C(O)CC(=O)C(=O)O` [OAA], in test [2], the “Without Pi / Ksi” value is 0.360 ± 0.049 mM.
